According to paper PMC7955127, “Preclinical small molecule WEHI-7326 overcomes drug resistance and elicits response in patient-derived xenograft models of human treatment-refractory tumors” (Cell Death & Disease, 2021):

Experiments:
LoVo = test: Cell growth inhibition assay, LoVo; type: cell-based; details: Homo sapiens, colon carcinoma, 72 h viability assay, CellTiterGlo, mean of 3 ± SEM, read-out: IC50 (inhibition of cellular proliferation)
Procedure: (§1) Cells were plated at a density of between 500 to 5000 cells per well for adherent cell lines depending on doubling time, and 15,000 cells per well for lymphoblastic leukemia cell lines, in a 96-well plate in 200 μl of growth media. Plates were incubated overnight at 37 °C before adding the inhibitors. Inhibitors were serially diluted from the stock solutions in complete medium and added to the cells. […] Cell viability was assessed by the AlamarBlue (Invitrogen) or CellTiterBlue/Glo (Promega) method according to manufacturer’s instructions. The curve fits and IC50 values were generated in PRISM (GraphPad, San Diego, CA).

H1437 = test: Cell growth inhibition assay, H1437; type: cell-based; details: Homo sapiens, NCI-H1437; H1437, non-small cell lung carcinoma; 72 h viability assay, CellTiterGlo; mean of 3 ± SEM; read-out: IC50 (inhibition of cellular proliferation)
Procedure: as §1

[1] = tested on: LoVo (colon carcinoma) xenograft; test: LoVo tumor xenograft in nude mice; type: in vivo, Balb/c nude mice
Procedure: LoVo (4 × 10^6), PC3 (3 × 10^6) or MDA-MB-231 LNA DRE (10^6) cells were collected by trypsination and injected with 50 μl 1:1 PBS:Matrigel (v/v) subcutaneously on the right flank of 18 female (LoVo), 40 male (PC3) or into 4th mammary fat pad of 40 female (MDA231) Balb/c nude mice. Tumor growth was monitored and average tumor size at commencement of dosing was 100 mm^3. Mice were randomized into 3 arms of each 5 (LoVo), 10 (PC3) or 12 (MDA23) mice respectively and treatment with vehicle (saline), WEHI-7326 (biweekly) or docetaxel (weekly) was administered via tail vein injection. Tumor volumes were measured at least twice weekly with calipers and the experiments were terminated when tumors in the control group started exceeding 1500 mm^3. For LoVo, both vehicle and 25 mg/kg WEHI-7326 groups were harvested 24 h, but 20 mg/kg WEHI-7326 group harvested 1 h post final dose. For PC3, docetaxel group was not harvested in an attempt to grow out resistant tumors.

MH792 LUSC PDX = test: LUSC PDX model MH792; type: in vivo, NOD-SCID-IL2Rγc–/– mice
Procedure: LUSC PDXs were generated as described in[25]. PDXs at passage 4 were defrosted and washed with PBS before counting. 200,000 to 500,000 cells were then injected in a 50:50 PBS:Matrigel mix into the flanks of NOD-SCID-IL2Rγc–/– male mice. Tumors were measured twice weekly with calipers and treatment started when tumors were between 70–120 mm^3. Mice were assigned to treatment groups based on average tumor volume per group. Mice were culled when tumors reached a volume of 600 mm^3.

[2] = Fourteen day maximum tolerated dose study, twice weekly i.v. (non-GLP); type: in vivo
Procedure: Fourteen day maximum tolerated dose (MTD) study of WEHI-7326 dihydrochloride following twice weekly intravenous administration in female Sprague-Dawley rats. All treatments were administered i.v. (tail vein) in a dosing volume of 10 mL/kg. Treatment was administered in a staggered manner, beginning with WEHI-7326 at 7.5 mg/kg and then increasing the dose on subsequent days. For all data calculations and presentation, the first day of treatment for each group is designated as Day 1. One animal died immediately following a single dose of WEHI-7326 at 60 mg/kg (Group 2). The remaining scheduled treatments at this dose were cancelled and dosing recommenced at a reduced dose of 10 mg/kg to the remaining 3 animals in this group. Intravenous (tail vein) treatment of female Sprague-Dawley rats with WEHI-7326 was tolerated without serious adverse events or body weight loss exceeding the ethical limit at doses of 7.5 and 10 mg/kg in this study.
Sixteen female Sprague-Dawley rats were microchipped and randomised into four groups of four based on body weight two days prior to the first day’s treatment. The test article was to be tested at four dose concentrations of 7.5 mg/kg, 15 mg/kg, 30 mg/kg and 60 mg/kg, administered i.v. via tail vein injection at a dose rate of 10 mL/kg. […] Animals were to be dosed on their respective Study Day 1, then twice weekly over two weeks. Body weights were measured once prior to dose administration, then daily for the duration of the study and at termination. Clinical observations were performed on a daily basis. Due to the immediate death of one animal dosed with WEHI-7326 at 60 mg/kg and subsequent development of signs of toxicity in animals that had received three doses at 15 mg/kg and two doses at 30 mg/kg, the dose level for the remaining three animals in Group 4 was reduced to 10 mg/kg (four doses). As treatment with WEHI-7326 was tolerated without serious adverse events or body weight loss exceeding the ethical limit at doses of 7.5 and 10 mg/kg in this study, the maximum tolerated dose was determined to be 10 mg/kg.

[3] = female rats, 7.5 mg/kg twice weekly i.v.
[4] = female rats, 10 mg/kg twice weekly i.v.
[5] = female rats, 15 mg/kg twice weekly i.v.
[6] = female rats, 30 mg/kg twice weekly i.v.

Question: For `COc1ccc(CNc2nc(NCc3ccc(CN)cc3)nc(NN3CC(=O)NC3=O)n2)cc1` [WEHI-7326], which IC50 (LoVo) is on record?
Answer: Its IC50 is 42.2 ± 9.9 nM.

Question: What about the IC50 (H1437) of the same compound?
Answer: Its IC50 is 29.7 ± 10.8 nM.

Question: What about the Body weight loss ([1]; LoVo xenograft mice, 25 mg/kg, 9 doses in total) of the same compound?
Answer: Its Body weight loss is ~ 6%.

Question: And the Tumor growth inhibition ([1]; LoVo xenograft, 25 mg/kg biweekly i.v.)?
Answer: Its Tumor growth inhibition is 60%.

Question: What about the “Adverse effects in treatment arm” value (MH792 LUSC PDX; MH792 PDX mice, 20 mg/kg i.v. twice a week, n = 8–10) of the same compound?
Answer: The value was 1 with hind limb paralysis after 4 weeks of treatment.

Question: What about the Median survival (MH792 LUSC PDX; MH792 PDX, WEHI-7326 20 mg/kg i.v. biweekly, docetaxel 10 mg/kg i.p. once) of the same compound?
Answer: Its Median survival is 34 days.

Question: What about the Lethality ([2]; female Sprague-Dawley rats, 60 mg/kg i.v.) of the same compound?
Answer: The Lethality was “acutely lethal”.

Question: And the “Mild red staining right fore limb (number of animals)” value [2, 3]?
Answer: Its value is 1/4.

Question: What about the “No remarkable observation (number of animals)” value [2, 3] of the same compound?
Answer: The value was 3/4.

Question: And the “Mild piloerection (number of animals)” value [2, 4]?
Answer: The value was 3/3.

Question: What about the “Mild red staining of snout, fore limbs and/or head (number of animals)” value [2, 4] of the same compound?
Answer: Its value is 3/3.

Question: And the “Urine-stained fur (number of animals)” value [2, 4]?
Answer: Its value is 1/3.

Question: And the “Discharge both eyes (number of animals)” value [2, 5]?
Answer: Its value is 1/4.

Question: What about the “Early termination (StudyDay 9) due to adverse clinical signs and excess body weight loss (number of animals)” value [2, 5] of the same compound?
Answer: Its value is 3/4.

Question: And the “Mild red staining of eyes and or head (number of animals)” value [2, 5]?
Answer: The value was 2/4.

Question: And the “Mild squinting both eyes (number of animals)” value [2, 5]?
Answer: Its value is 1/4.

Question: And the “Mild/moderate hunched posture (number of animals)” value [2, 5]?
Answer: The value was 4/4.

Question: What about the “Mild/moderate piloerection (number of animals)” value [2, 5] of the same compound?
Answer: Its value is 4/4.

Question: And the “Urine-stained fur (number of animals)” value [2, 5]?
Answer: Its value is 1/4.

Question: And the “Early termination (StudyDay 5) due to adverse clinical signs and excess body weight loss (number of animals)” value [2, 6]?
Answer: The value was 4/4.

Question: What about the “Mild excess salivation (number of animals)” value [2, 6] of the same compound?
Answer: Its value is 2/4.

Question: What about the “Mild piloerection (number of animals)” value [2, 6] of the same compound?
Answer: Its value is 4/4.

Question: And the “Mild red staining of limbs, eyes, snout and or head (number of animals)” value [2, 6]?
Answer: The value was 4/4.

Question: What about the “Mild squinting both eyes (number of animals)” value [2, 6] of the same compound?
Answer: The value was 4/4.

Question: What about the “Mild/moderate hunched posture (number of animals)” value [2, 6] of the same compound?
Answer: Its value is 4/4.

Question: And the “Mild/moderate labored breathing (number of animals)” value [2, 6]?
Answer: The value was 4/4.

Question: What about the “Mild/moderate lethargy (number of animals)” value [2, 6] of the same compound?
Answer: The value was 4/4.

Question: And the “Urine-stained fur (number of animals)” value [2, 6]?
Answer: Its value is 4/4.

Question: And the “Found dead immediately after administration (number of animals)” value ([2]; female rats, 60 mg/kg i.v., single dose)?
Answer: Its value is 1/1.

Question: And the MTD at 14 days ([2]; rat, in vivo, iv, female Sprague-Dawley rats, twice weekly i.v., 14 day)?
Answer: Its MTD at 14 days is 10 mg/kg.
